Experimental data taken from ChEMBL document CHEMBL1155149, “In vitro activities of 15 antimicrobial agents against 110 toxigenic clostridium difficile clinical isolates collected from 1983 to 2004” (2007).
≈ marks a conversion by molar mass, not a printed value.

What follows are molecules tested on Clostridioides difficile (assay: Antimicrobial activity against Clostridium difficile clinical isolates by agar dilution method).
Assay type: functional

Compound | MIC50 [µg/mL] | MIC90 [µg/mL]
C[C@@H](O)[C@H]1C(=O)N2C(C(=O)O)=C(S[C@@H]3CN[C@H](CNS(N)(=O)=O)C3)[C@H](C)[C@H]12 [DORIPENEM] | 1 (≈ 2.38 µM) | 2 (≈ 4.76 µM)
CCc1c(Cl)c(O)c(Cl)c(O)c1C(=O)O[C@H]1[C@H](O)[C@H](OC)[C@H](OC/C2=C\C=C\C[C@H](O)/C(C)=C/[C@H](CC)[C@@H](O[C@@H]3OC(C)(C)[C@@H](OC(=O)C(C)C)[C@H](O)[C@@H]3O)/C(C)=C/C(C)=C/C[C@@H]([C@@H](C)O)OC2=O)O[C@@H]1C [FIDAXOMICIN] | 0.125 (≈ 0.118 µM) | 0.125 (≈ 0.118 µM)
COc1c(N2CCNC(C)C2)c(F)cc2c(=O)c(C(=O)O)cn(C3CC3)c12 (stereo unspecified) [GATIFLOXACIN] | 1 (≈ 2.66 µM) | 16 (≈ 42.6 µM)
C[C@H]1COc2c(N3CCN(C)CC3)c(F)cc3c(=O)c(C(=O)O)cn1c23.C[C@H]1COc2c(N3CCN(C)CC3)c(F)cc3c(=O)c(C(=O)O)cn1c23.O [LEVOFLOXACIN] | 4 | 32
C[C@@H](O)[C@H]1C(=O)N2C(C(=O)O)=C(S[C@@H]3CN[C@H](C(=O)N(C)C)C3)[C@H](C)[C@H]12 [MEROPENEM] | 2 (≈ 5.22 µM) | 2 (≈ 5.22 µM)
Cc1ncc([N+](=O)[O-])n1CCO [METRONIDAZOLE] | 0.125 (≈ 0.73 µM) | 0.25 (≈ 1.46 µM)
CC(=O)Oc1ccccc1C(=O)Nc1ncc([N+](=O)[O-])s1 [NITAZOXANIDE] | 0.06 (≈ 0.195 µM) | 0.125 (≈ 0.407 µM)
CO[C@H]1/C=C/O[C@@]2(C)Oc3c(C)c(O)c4c(=O)c(c5oc6cc(N7CCN(CC(C)C)CC7)cc(O)c6nc-5c4c3C2=O)NC(=O)/C(C)=C\C=C\[C@H](C)[C@H](O)[C@@H](C)[C@@H](O)[C@@H](C)[C@H](OC(C)=O)[C@@H]1C [RIFALAZIL] | 0.0075 (≈ 0.00797 µM) | 0.03 (≈ 0.0319 µM)
CO[C@H]1/C=C/O[C@@]2(C)Oc3c(C)c(O)c4c(O)c(c5c(nc6cc(C)ccn65)c4c3C2=O)NC(=O)/C(C)=C\C=C\[C@H](C)[C@H](O)[C@@H](C)[C@@H](O)[C@@H](C)[C@H](OC(C)=O)[C@@H]1C [RIFAXIMIN] | 0.0075 (≈ 0.00954 µM) | 0.015 (≈ 0.0191 µM)
CN(C)c1cc(NC(=O)CNC(C)(C)C)c(O)c2c1C[C@H]1C[C@H]3[C@H](N(C)C)C(O)=C(C(N)=O)C(=O)[C@@]3(O)C(O)=C1C2=O [TIGECYCLINE] | 0.125 (≈ 0.213 µM) | 0.25 (≈ 0.427 µM)
CCS(=O)(=O)CCn1c([N+](=O)[O-])cnc1C [TINIDAZOLE] | 0.125 (≈ 0.506 µM) | 0.25 (≈ 1.01 µM)
O=C(Nc1ncc([N+](=O)[O-])s1)c1ccccc1O [TIZOXANIDE] | 0.06 (≈ 0.226 µM) | 0.125 (≈ 0.471 µM)
CN[C@H](CC(C)C)C(=O)N[C@H]1C(=O)N[C@@H](CC(N)=O)C(=O)N[C@H]2C(=O)N[C@H]3C(=O)N[C@H](C(=O)N[C@H](C(=O)O)c4cc(O)cc(O)c4-c4cc3ccc4O)[C@H](O)c3ccc(c(Cl)c3)Oc3cc2cc(c3O[C@@H]2O[C@H](CO)[C@@H](O)[C@H](O)[C@H]2O[C@H]2C[C@](C)(N)[C@H](O)[C@H](C)O2)Oc2ccc(cc2Cl)[C@H]1O [VANCOMYCIN] | 1 (≈ 0.69 µM) | 1 (≈ 0.69 µM)
